In PMC5998037, “Glutamine 89 is a key residue in the allosteric modulation of human serine racemase activity by ATP” (Scientific Reports, 2018):
Where a chain is given by its changes, count along the chain named. Values joined by “and” are separate entries in the source; they are usually repeats but may differ in a detail not shown here. Equal entries are not always repeated. Where two headings read alike, the source gives them in different places.

Assays:
StTdcB = system: StTdcB; design: method as in PMID 17046821; details: 5 mM AMP; cited from earlier work
hSR [1] = target: T1, hSR (Homo sapiens, UniProt Q9GZT4); design: method as in PMID 23992455; details: cited from earlier work; for Kd: hSR
T1 construct: His tag; made in house; host or cells: Escherichia coli (co-expressed with chaperones)
T1 sequence (Q9GZT4 1-340): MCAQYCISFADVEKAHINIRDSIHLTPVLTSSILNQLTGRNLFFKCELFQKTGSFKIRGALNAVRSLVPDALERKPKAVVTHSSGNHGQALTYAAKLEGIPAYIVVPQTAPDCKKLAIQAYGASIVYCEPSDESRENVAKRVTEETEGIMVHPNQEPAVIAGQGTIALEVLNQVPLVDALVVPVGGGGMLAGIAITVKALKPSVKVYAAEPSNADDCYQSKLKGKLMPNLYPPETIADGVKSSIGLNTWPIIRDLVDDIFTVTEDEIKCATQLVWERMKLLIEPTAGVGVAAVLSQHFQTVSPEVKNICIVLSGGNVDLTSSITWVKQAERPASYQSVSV

Q89M-hSR [2] = target: T2, Q89M-hSR (Homo sapiens, UniProt Q9GZT4, Q89M); experiment: Fluorimetric titrations (PLP fluorescence emission); format: binding
T2 construct: hexa-His; made in house; host or cells: E. coli BL21 CodonPlus (DE3)-RIL with GroEL/GroES
T2 sequence (Q9GZT4 1-340 Q89M): T1 sequence (Q9GZT4 1-340) with Q89M
Description: Fluorescence emission spectra upon excitation at 412 nm were collected using a FluoroMax-3 fluorometer (HORIBA Jobin Yvon, Kyoto, Japan) at 20.0 ± 0.5 °C. […] Binding of either glycine or ATP was measured by direct titrations of the protein solution in the range 0–1.2 mM and 0–1.0 mM, respectively. […] Spectra were corrected for buffer contribution. Far-UV circular dichroism spectra (195–260 nm) were collected using a JASCO J-715 spectropolarimeter (Easton, MD, USA). […] Each spectrum is the average of three independent measurements.
(§1) The fluorescence emission intensity was collected at 480 nm for glycine titration, at 492 nm for ATP titration and at 478 nm for ATP titration in the presence of glycine. The kinetic parameters were calculated using the Michaelis –Menten equation:3 v0=Vmax⋅[S]/Km+[S] where v0 is the initial enzymatic rate, Vmax is the rate at substrate saturation, Km is the Michaelis constant and [S] is the substrate concentration.

hSR [3] = target: T1, hSR; experiment: D-Ser dehydration (LDH-coupled assay); format: biochemical; details: D-Ser dehydration by hSR
Description: (§2) The initial velocity of L-serine dehydration by hSR was monitored by a coupled assay with lactate dehydrogenase (LDH)[5] as previously reported. Nicotinamide adenine dinucleotide (NADH) consumption was followed at 340 nm using a Varian Cary4000 spectrophotometer. The assay solution in buffer A contained 5 mM DTT, 30 U/ml LDH and 300 μM NADH. The concentration of magnesium used in the assay was always higher than or equal to the concentration of ATP. If not otherwise stated, it was set to 2 mM. The protein concentration used in the assay for L-Ser dehydration was 0.4 and 1.6 μM in the presence and absence of 2 mM ATP, respectively. The concentration used in the assay for D-Ser dehydration was 3.1 and 6.0 μM in the presence and absence of ATP, respectively.
(§3) The half-maximal activation (EC50) caused by ATP binding to hSR was calculated with Eq. (1):1 vi/v0=a⋅[ATP]/EC50+[ATP] where vi is the velocity of the reaction catalysed by the enzyme in presence of a defined ATP concentration, v0 is the velocity of the reaction catalysed by the enzyme in the absence of ATP and a is the difference between the maximum and the basal activity. The dissociation constant (KD) of ligands for hSR calculated by fluorimetric titrations was calculated with Eq. (2):2 y=y0+a⋅[L]/KD+[L] where y is the fluorescence emission intensity, [L] is the ligand concentration, y0 is an offset and a is the amplitude. The fluorescence emission intensity was collected at 480 nm for glycine titration, at 492 nm for ATP titration and at 478 nm for ATP titration in the presence of glycine. The kinetic parameters were calculated using the Michaelis –Menten equation:3 v0=Vmax⋅[S]/Km+[S] where v0 is the initial enzymatic rate, Vmax is the rate at substrate saturation, Km is the Michaelis constant and [S] is the substrate concentration. Catalytic efficiency for the dehydratase activity of Q89A-hSR on D-Ser was calculated at [D-Ser] < Km, where equation (3) becomes v0≅Vmax/Km .

hSR [4] = target: T1, hSR; design: method as in PMID 23992455; details: wt hSR, cited from earlier work
Q89A-hSR [5] = target: T3, Q89A-hSR (Homo sapiens, UniProt Q9GZT4, Q89A); experiment: L-Ser racemisation (DAAO-coupled discontinuous assay); format: biochemical; details: L-Ser racemisation by Q89A-hSR, 2 mM ATP vs absence of nucleotide
T3 construct: hexa-His; made in house; host or cells: E. coli BL21 CodonPlus (DE3)-RIL with GroEL/GroES
T3 sequence (Q9GZT4 1-340 Q89A): T1 sequence (Q9GZT4 1-340) with Q89A
Description: (§4) The formation of D-serine as a function of L-serine concentration was determined using a discontinuous assay, based on oxidation of D-serine by the enzyme DAAO (Sigma Aldrich, A5222)[18],[37],[54]. This reaction produces hydrogen peroxide, that is used by the horseradish peroxidase to oxidize o-dianisidine dihydrochloride to form a chromophoric product. After the addition of sulphuric acid to increase the solubility, the concentration of this product can be measured at 550 nm. L-serine at various final concentrations was added to buffer A containing 1.5 µM hSR, in the absence and presence of 2 mM ATP. The reaction mixture was incubated at 37 °C and aliquots were periodically removed to determine D-serine concentration. L-serine was purified from any D-serine contaminations through 48 hours of incubation with 400 U/ml of DAAO and 100 U/ml of catalase, which were subsequently thermally inactivated. Absolute D-serine concentrations were determined using calibrations curves obtained by reacting known D-serine concentrations with DAAO. Absorbance signal was acquired by a Halo LED 96 plate reader (Dynamica Scientific, UK).
as §3, with “The kinetic parameters were calculated using the Michaelis –Menten equation:3 v0=Vmax⋅[S]/Km+[S] where v0 is the initial enzymatic rate, Vmax is the rate at substrate saturation, Km is the Michaelis constant and [S] is the substrate concentration.” left out

Q89M-hSR [6] = target: T2, Q89M-hSR; experiment: as above; format: biochemical; details: L-Ser racemisation by Q89M-hSR, 2 mM ATP vs absence of nucleotide
Description: as §4
as §3, with “The kinetic parameters were calculated using the Michaelis –Menten equation:3 v0=Vmax⋅[S]/Km+[S] where v0 is the initial enzymatic rate, Vmax is the rate at substrate saturation, Km is the Michaelis constant and [S] is the substrate concentration.” left out

hSR [7] = target: T1, hSR; experiment: as above; format: biochemical; details: L-Ser racemisation by hSR, 2 mM ATP vs absence of nucleotide
Description: as §4
as §3, with “The kinetic parameters were calculated using the Michaelis –Menten equation:3 v0=Vmax⋅[S]/Km+[S] where v0 is the initial enzymatic rate, Vmax is the rate at substrate saturation, Km is the Michaelis constant and [S] is the substrate concentration.” left out

Q89A-hSR [8] = target: T3, Q89A-hSR; experiment: L-Ser dehydration (LDH-coupled assay); format: biochemical; details: L-Ser dehydration by Q89A-hSR, 2 mM ATP vs absence of nucleotide
Description: as §2, §3

Q89M-hSR [9] = target: T2, Q89M-hSR; experiment: L-Ser dehydration (LDH-coupled assay); format: biochemical; details: L-Ser dehydration by Q89M-hSR, 2 mM ATP vs absence of nucleotide
Description: as §2, §3

Q89A-hSR [10] = target: T3, Q89A-hSR; experiment: D-Ser dehydration (LDH-coupled assay); format: biochemical; details: D-Ser dehydration by Q89A-hSR, ATP vs absence of nucleotide
Description: as §2, §3

Q89M-hSR [11] = target: T2, Q89M-hSR; experiment: D-Ser dehydration (LDH-coupled assay); format: biochemical; details: D-Ser dehydration by Q89M-hSR, 2 mM ATP vs absence of nucleotide
Description: as §2, §3

Q89A-hSR [12] = target: T3, Q89A-hSR; experiment: Activation of L-Ser dehydratase activity by ATP; format: biochemical
Description: (§5) Nicotinamide adenine dinucleotide (NADH) consumption was followed at 340 nm using a Varian Cary4000 spectrophotometer. The assay solution in buffer A contained 5 mM DTT, 30 U/ml LDH and 300 μM NADH. The concentration of magnesium used in the assay was always higher than or equal to the concentration of ATP. If not otherwise stated, it was set to 2 mM. […] The concentration used in the assay for D-Ser dehydration was 3.1 and 6.0 μM in the presence and absence of ATP, respectively.
as §1

Q89M-hSR [13] = target: T2, Q89M-hSR; experiment: Activation of L-Ser dehydratase activity by ATP; format: biochemical
Description: as §5, §1

hSR [14] = target: T1, hSR; experiment: L-Ser dehydration (LDH-coupled assay); format: biochemical; details: hSR saturated with ATP
Description: as §2, §3

[15] = 2 mM ATP, preliminary, data not shown

**Q.** What does the source list for Nc1ncnc2c1ncn2[C@@H]1O[C@H](COP(=O)(O)O)[C@@H](O)[C@H]1O [AMP]?
**A.** fold decrease in Km (StTdcB): 7.7 fold; fold increase in Vmax (StTdcB): 3 fold

**Q.** For NCC(=O)O [Glycine], which Kd (hSR [1]; ligand 2 ATP) is on record?
**A.** 470 ± 30 µM

**Q.** And the Kd (hSR [1]; no ligand 2)?
**A.** 7000 ± 300 µM

**Q.** And the “fold higher affinity for Q89M-hSR (vs wt hSR)” value (Q89M-hSR [2]; Q89M-hSR vs hSR)?
**A.** more than 60 fold

**Q.** What about the Kd (Q89M-hSR [2]; Q89M-hSR, ligand 2 ATP (2 mM)) of the same molecule?
**A.** 28 ± 3 µM

**Q.** And the Kd (Q89M-hSR [2]; Q89M-hSR, no ligand 2 (absence of ATP))?
**A.** 110 ± 2 µM

**Q.** For N[C@H](CO)C(=O)O [D-Ser, D-serine], which kcat (hSR [3]; −ATP) is on record?
**A.** 0.0283 ± 0.0017 s⁻¹

**Q.** What does the source list for Nc1ncnc2c1ncn2[C@@H]1O[C@H](COP(=O)(O)OP(=O)(O)OP(=O)(O)O)[C@@H](O)[C@H]1O [ATP]?
**A.** Kd (hSR [1]; ligand 2 Glycine): 4.9 ± 0.6 µM; Hill coefficient of nucleotide binding (hSR [1]; human enzyme): about 2; Hill coefficient n, fluorimetric titration with ATP (hSR [1]; wt hSR, sigmoidal fit): 1.8 ± 0.1; EC50 (hSR [1]; wt hSR, sigmoidal fit, read-out: EC50 of ATP, fluorimetric titration): 257 ± 10 µM; fold increase of specific dehydratase activity (hSR [4]; 2 mM ATP): 7 fold; Hill coefficient n of ATP dependence of L-Ser dehydratase activity (hSR [4]; sigmoidal fit): 1.7 ± 0.2 and 1.7; EC50 (hSR [4]; sigmoidal fit, read-out: half maximal effective concentration of ATP (EC50), L-Ser dehydratase activity): 220 ± 10 µM; Increase (fold increase of catalytic efficiency kcat/Km in the presence of ATP) (Q89A-hSR [5]): 1.6 fold; Increase (fold increase of catalytic efficiency kcat/Km in the presence of ATP) (Q89M-hSR [6]): 1.8 fold; Increase (fold increase of catalytic efficiency kcat/Km in the presence of ATP) (hSR [7]): 2 fold and 1.9 fold; Increase (fold increase of catalytic efficiency kcat/Km in the presence of ATP) (Q89A-hSR [8]): 3.3 fold; Increase (fold increase of catalytic efficiency kcat/Km in the presence of ATP) (Q89M-hSR [9]): 3.9 fold; difference between KD and EC50 of ATP (Q89M-hSR [2]; Q89M-hSR, KD without substrate vs EC50 with 300 mM L-Ser): 6 fold; cooperativity of ATP binding (fluorimetric titration) (Q89M-hSR [2]; Q89M-hSR, absence of substrate): no cooperativity; fold increase in fluorescence emission intensity upon ATP binding (Q89M-hSR [2]; Q89M-hSR, excitation at 412 nm, absence of substrate): 1.65 fold; Kd (Q89M-hSR [2]; Q89M-hSR, ligand 2 Glycine (1 mM)): 48 ± 5 µM; Kd (Q89M-hSR [2]; Q89M-hSR, no ligand 2 (absence of substrate/glycine)): 154 ± 13 µM; Increase (fold increase of catalytic efficiency kcat/Km in the presence of ATP) (Q89A-hSR [10]): 2.3 fold; Increase (fold increase of catalytic efficiency kcat/Km in the presence of ATP) (Q89M-hSR [11]): 2.8 fold; Increase (fold increase of catalytic efficiency kcat/Km in the presence of ATP) (hSR [3]; 2 mM ATP vs absence of nucleotide): 4.0 fold; fold increase of specific dehydratase activity (Q89A-hSR [12]; [15]): about 4 fold; effect on activity of further addition of ATP (Q89A-hSR [12]; ATP up to 10 mM): not increased; cooperativity of ATP binding (activity assay) (Q89A-hSR [12]; saturating 300 mM L-Ser): non-cooperative; fold increase of specific dehydratase activity (Q89M-hSR [13]; [15]): about 4 fold; effect on activity of further addition of ATP (Q89M-hSR [13]; ATP up to 10 mM): not increased; cooperativity of ATP binding (activity assay) (Q89M-hSR [13]; saturating 300 mM L-Ser): non-cooperative; EC50 (Q89M-hSR [13]; saturating 300 mM L-Ser, read-out: half-maximal activation (EC50) by ATP, L-Ser dehydratase activity): 21 ± 2 µM

**Q.** Which “dehydratase activity efficiency relative to racemisation” value (hSR [14]) does the source give for N[C@@H](CO)C(=O)O [L-Ser, L-serine] here?
**A.** 15 fold
